Reference: patent US20240336573A1, “COMPOUND FOR THE TREATMENT AND PROPHYLAXIS OF INFECTIOUS DISEASES” (Eberhard Karls Universität Tübingen Medizinische Fakultät, priority 2021, published 2024)

How the values were obtained:
E. coli ATCC 25922 = assay: Sensitizer MIC assay (vancomycin); assay type: cell-based; settings: vancomycin; 100 μM compound; type strain
Protocol: (§1) To test for the sensitizer properties of the compounds, the inventors then performed a sensitizer MIC assay. To this end, E. coli BW25113, E. coli JW2496-3, and E. coli ATCC 25922 inocula were prepared as described above. Each well of a 96-well plate was prefilled with a fixed compound concentration of 100 μM and a dilution series of Vancomycin ranging from […]. A sensitizing effect was defined as reduction of the MIC value of Vancomycin of the respective test strain.

E. coli BW25113 = assay: Sensitizer MIC assay (vancomycin); assay type: cell-based; settings: 100 μM compound, wildtype strain
Protocol: as §1

E. coli JW2496-3 = assay: Sensitizer MIC assay (vancomycin); assay type: cell-based; settings: 100 μM compound, more susceptible strain
Protocol: as §1

[1] = test system: E. coli BW25113, E. coli JW2496-3, E. coli ATCC 25922; assay: Minimal inhibitory concentration assay (bactericidal/bacteriostatic assessment); assay type: cell-based; settings: dilution series 100-1.7 μM
Excerpt: The intended effect of a SurA inhibitor should be the induction of a disturbance of the outer membrane composition resulting in an increased susceptibility to antibiotic treatment. Of note, Vancomycin is typically not used to treat infections with Gram-negative bacteria, because it is excluded by the OM and not efficient at concentrations that could be achieved in patients. However, at appropriate dosing in vitro it can be used to detect outer membrane defects. For determining a potential sensitizing effect of Vancomycin treatment, the inventors first tested whether the compounds at hand were bactericidal per se. Therefore, the inventors performed a minimal inhibitory concentration (MIC) assay. To this end, 5 ml overnight cultures of E. coli BW25113 (Keio-Collection reference strain), E. coli JW2496-3 (Keio-Collection single gene knockout for bamB, which suffers from decreased outer membrane integrity) and E. coli ATCC 25922 (a reference strain recommended for antibiotic susceptibility testing) were grown in Mueller Hinton Broth, Cation adjusted (MHB-II). The next day, the OD was adjusted to obtain 1*10^8 CFU/ml using fresh MHB-II. Next, this bacterial solution was diluted 1:100 into 20 ml fresh MHB-II. 50 μl of this bacteria solution were then transferred into each well of a 96-well plate prefilled with 50 μl MHB-II supplemented with the desired compounds. The test plates for the bactericidal assessment contained dilution series of the compounds from 100-1.7 μM. Plates were sealed with a gas permeable membrane and incubated o/n at 37° C. in a humid chamber without shaking. After o/n incubation, bacterial growth was quantified by measuring the optical density at 600 nm wavelength in a multiplate reader. Compounds showing no growth inhibition at 100 μM were considered non-bactericidal. Of note, the bactericidal effect of Vancomycin was assessed similarly for each test strain using Vancomycin concentrations ranging from […]. This was done to identify a Vancomycin concentration at which the strains just managed to survive.

SurA = SurA (Escherichia coli, UniProt P0ABZ6); assay: Luciferase-based SurA activity assay (primary assay, in-house); assay type: biochemical, E. coli; settings: n/d: no signal detected; for Primary Assay ICmax: QHL-10 derivatives, dose response up to 125 μM; for Primary Assay Amplitude: amplitude of signal
Excerpt: The biological function of SurA is to bind and to keep outer membrane proteins that have reached the periplasm in an unfolded but folding-competent state. The inventors' assay is based on this interaction and uses firefly Luciferase (fLuc) as a non-native substrate. […] This is exploited in the assay (FIG. 3). The loss of tertiary structure of fLuc leads to the exposure of binding sites for SurA. It is known that SurA binds selectively to a special group of substrates. These substrates have in common the specific patterns of hydrophobic amino acids that are highly enriched in the beta strands of integral outer membrane proteins. These motifs are present in OMPs of all Gram-negative bacteria and in fLuc as well. Upon mild heat treatment of fLuc and its subsequent partial unfolding, fLuc is accepted as a substrate by SurA. Of note, these intermediates served as reporter substrates to determine the activity of a […] folding chaperone. […] This interaction remains stable upon temperature reduction. Next, the temperature of the assay is reduced to room temperature and luciferase activity is subsequently measured by addition of Luciferin and ATP. In conditions without SurA, fLuc will refold into its active conformation resulting in a luminescence signal.
In short, the Luciferase based SurA activity assay was performed in SurA Activity Assay Buffer (40 mM HEPES pH 7.4, 20 mM MgSO4, 0.5 g/I BSA). SurA aliquots were thawn at RT, activated by mild heat treatment and cooled down to RT for 10 min. […] Solution A containing 10 mM ATP as well as 0.3 mM Luciferin (Promega Beetle Luciferin, Potassium Salt) in water was prepared. Luciferase working solution was prepared by diluting 1 ml Luciferase working stock (100 nM) with 9 ml assay buffer. 33 μl of the protein solution were added to every 2nd row of a well of a 384-well PS, white, flat bottom plate. […] Subsequently, 2 μl of compound in DMSO were added in quadruplicates (4 wells each of protein solution and buffer controls). These compound solutions could contain either various compounds or different dilutions of the same compound allowing screening inhibitor activity in a dose dependent manner. After compound addition, plates were incubated 15 min at RT. After this incubation, 5 μl of Luciferase working solution were added to each well. Next, the plates were incubated 25 min at 38° C. to partially unfold the Luciferase. Subsequently, the assay plate was cooled for 5 min at 4° C. followed by 10 min incubation at RT prior to luminescence measurement. Luminescence was measured in a TECAN infinite M200 pro plate reader for each well individually after injection of 10 μl Solution A.

Sequence of SurA (P0ABZ6 21-428): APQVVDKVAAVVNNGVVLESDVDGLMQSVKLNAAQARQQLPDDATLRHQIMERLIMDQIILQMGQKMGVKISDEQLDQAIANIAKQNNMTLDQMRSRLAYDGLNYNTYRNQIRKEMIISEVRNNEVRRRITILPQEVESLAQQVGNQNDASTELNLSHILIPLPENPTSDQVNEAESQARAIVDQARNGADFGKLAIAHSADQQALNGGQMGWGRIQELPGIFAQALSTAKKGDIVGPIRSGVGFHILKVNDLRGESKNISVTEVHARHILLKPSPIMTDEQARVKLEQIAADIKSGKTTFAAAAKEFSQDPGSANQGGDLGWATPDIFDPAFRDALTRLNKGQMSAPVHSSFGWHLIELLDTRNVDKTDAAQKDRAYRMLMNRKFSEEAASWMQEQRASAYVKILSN

NC(=O)c1nc(Cc2ccc(OCc3ccccc3)cc2)[nH]c1NC(=O)c1ccc(-c2ccccc2)cc1 [Compound 1d, 5-([1,1′-biphenyl]-4-carboxamido)-2-(4-(benzyloxy)benzyl)-1H-imidazole-4-carboxamide]
Sensitizer MIC Assay (log2-fold reduction of MIC in presence of compound) ATCC25922 (E. coli ATCC 25922): 0 log2-fold | Sensitizer MIC Assay (log2-fold reduction of MIC in presence of compound) BW25113 (E. coli BW25113): 0 log2-fold | Sensitizer MIC Assay (log2-fold reduction of MIC in presence of compound) JW2496-3 (E. coli JW2496-3): 0 log2-fold | Bacteriostatic MIC Assay Result [1]: non-bacteriostatic | Primary Assay ICmax (SurA): 32 µM | Primary Assay Amplitude (SurA): low

CCOc1ccc2ccccc2c1C(=O)Nc1[nH]c(-c2ccccc2O)nc1C(N)=O [Compound 3f, 5-(2-ethoxy-1-naphthamido)-2-(2-hydroxyphenyl)-1H-imidazole-4-carboxamide]
Sensitizer MIC Assay (log2-fold reduction of MIC in presence of compound) ATCC25922 (E. coli ATCC 25922): 1 log2-fold | Sensitizer MIC Assay (log2-fold reduction of MIC in presence of compound) BW25113 (E. coli BW25113): 1 log2-fold | Sensitizer MIC Assay (log2-fold reduction of MIC in presence of compound) JW2496-3 (E. coli JW2496-3): 2 log2-fold | Bacteriostatic MIC Assay Result [1]: non-bacteriostatic | Primary Assay ICmax (SurA): 16 µM | Primary Assay Amplitude (SurA): low

NC(=O)c1nc(-c2ccc(F)c(N)c2)[nH]c1NC(=O)c1ccc(-c2ccccc2)cc1 [Compound 3d, 5-([1,1′-biphenyl]-4-carboxamido)-2-(3-amino-4-fluorophenyl)-1H-imidazole-4-carboxamide]
Sensitizer MIC Assay (log2-fold reduction of MIC in presence of compound) ATCC25922 (E. coli ATCC 25922): 0 log2-fold | Sensitizer MIC Assay (log2-fold reduction of MIC in presence of compound) BW25113 (E. coli BW25113): 0 log2-fold | Sensitizer MIC Assay (log2-fold reduction of MIC in presence of compound) JW2496-3 (E. coli JW2496-3): 0 log2-fold | Bacteriostatic MIC Assay Result [1]: non-bacteriostatic | Primary Assay ICmax (SurA): 16 µM | Primary Assay Amplitude (SurA): high

NC(=O)c1nc(Cc2ccc(OCC(=O)O)cc2)[nH]c1NC(=O)c1cccc(-c2ccccc2)c1 [Compound 2b, 2-(4-((5-([1,1′-biphenyl]-3-carboxamido)-4-carbamoyl-1H-imidazol-2-yl)methyl)phenoxy)acetic acid]
Sensitizer MIC Assay (log2-fold reduction of MIC in presence of compound) ATCC25922 (E. coli ATCC 25922): 0 log2-fold | Sensitizer MIC Assay (log2-fold reduction of MIC in presence of compound) BW25113 (E. coli BW25113): 0 log2-fold | Sensitizer MIC Assay (log2-fold reduction of MIC in presence of compound) JW2496-3 (E. coli JW2496-3): 0 log2-fold | Bacteriostatic MIC Assay Result [1]: non-bacteriostatic | Primary Assay ICmax (SurA): 64 µM | Primary Assay Amplitude (SurA): low
